How the values were obtained:
Type in all cases: cell-based
eol1 = test: In vitro ADC activity, AML cell lines, CellTiter-Glo (Example 20); details: eol1, 5 days
hel9217 = test: as above; details: hel9217, 5 days
aml193 = test: as above; details: aml193, 5 days
hl60 = test: as above; details: hl60, 5 days
KMS-27 [1] = test: CellTiter-Glo proliferation assay, single agent and with venetoclax (Example 19); details: 5 days; for IC50: KMS-27, 120 h; for Amax: in %
Procedure: (§1) The CD48 MCL-1 antibody drug conjugates were tested against four endogenous cancer cell lines. KMS-21 BM (JCRB No. JCRB1185 cultured in RPMI-1640+10% FBS), KMS-20 (JCRB No. JCRB1196 cultured in RPMI-1640+10% FBS), KMS-27 (JCRB No. JCRB1188 cultured in RPMI-1640+10% FBS), and NCI-H929 (ATCC No. CRL-9068 cultured in RPMI-1640+10% FBS+0.05 mM 2-mercaptoethanol).
(§2) The ability of the CD48 MCL-1 antibody drug conjugates to inhibit cell proliferation and survival was assessed using the Promega CellTiter-Glo® proliferation assay. Cell lines were cultured in media that is optimal for their growth at 5% CO2, 37° C. in a tissue culture incubator. Prior to seeding for the proliferation assay, the cells were split at least 2 days before the assay to ensure optimal growth density. On the day of seeding, suspension cells were harvested. Cell viability and cell density were determined using a cell counter (Vi-Cell XR Cell Viability Analyzer, Beckman Coulter). […] Cells were seeded at a density of 1,000 cells per well in 45 μL of standard growth media. Plates were incubated at 5% CO2, 37° C. overnight in a tissue culture incubator. The next day, free MCL-1 payload (P1), targeting MCL-1 ADCs and non-targeting isotype ADCs were prepared at 10× in standard growth media. The prepared drug treatments were then added to the cells resulting in final concentrations of 0.0005-300 nM and a final volume of 50 μL per well. Each drug concentration was tested in quadruplets. Two conditions were evaluated for each compound. The compounds were evaluated as single agents and in combination with venetoclax. The venetoclax was dosed at either 5 nM or 50 nM final concentration. Plates were incubated at 5% CO2, 37° C. for 5 days in a tissue culture incubator, after which cell viability was assessed through the addition of 25 μL of CellTiter Glo® (Promega, cat #G7573), a reagent which lyses cells and measures total adenosine triphosphate (ATP) content. Plates were incubated at room temperature for 10 minutes to stabilize luminescent signals prior to reading using a luminescence reader (EnVision Multilabel Plate Reader, PerkinElmer). To evaluate the effect of the drug treatments, luminescent counts from wells containing untreated cells (100% viability) were used to normalize treated samples. A variable slope model was applied to fit a nonlinear regression curve to the data in GraphPad PRISM version 7.02 software. IC50 and Amax values were extrapolated from the resultant curves.

NCI-H929 = test: as above; details: 5 days; for IC50: Homo sapiens, NCI-H929, 120 h; for Amax: in %
Procedure: as §1, §2

KMS-27 [2] = test: CellTiter-Glo proliferation assay, anti-CD48 ADCs (Example 18); details: KMS-27, 5 days
Procedure: as §1, with “conjugate CD48-L7-P1, isotype IgG1-L7-P1 ADC, and MCL-1 free payload P1” for “conjugates”, “JCRB11185” for “JCRB1185”
The ability of the CD48 MCL-1 antibody drug conjugate CD48-L7-P1, isotype IgG1-L7-P1 ADC, and MCL-1 free payload P1 to inhibit cell proliferation and survival was assessed using the Promega CellTiter-Glo® proliferation assay.
as §2, with “Cell” for “The ability of the CD48 MCL-1 antibody drug conjugates to inhibit cell proliferation and survival was assessed using the Promega CellTiter-Glo® proliferation assay. Cell”, “MCL-1 ADC,” for “MCL-1 ADCs”, “of 0.0005-500” for “of 0.0005-300”, “quadruplets.” for “quadruplets. Two conditions were evaluated for each compound. The compounds were evaluated as single agents and in combination with venetoclax. The venetoclax was dosed at either 5 nM or 50 nM final concentration.”
The dose response curves of representative cancer cell lines expressing the CD48 target of interest are shown in FIG. 22 (square=CD48-L7-P1, circle IgG-L7-P1, triangle=free MCL1 payload P1).

- GI50 (hl60; Homo sapiens, HL-60, 120 h): 87 nM
- IC50 (NCI-H929; NCI-H929, + 5 nM Venetoclax): 8.69 nM
- IC50 (NCI-H929; NCI-H929, + 50 nM Venetoclax): 8.29 nM
- IC50 (NCI-H929; NCI-H929, single agent): 10.7 nM
Compound: COc1ccccc1-c1nccc(COc2ccccc2C[C@@H](Oc2ncnc3sc(-c4ccc(F)cc4)c(-c4ccc(OCCN5CCN(C)CC5)c(Cl)c4C)c23)C(=O)O)n1 [P1, (2R)-2-[5-[3-chloro-2-methyl-4-[2-(4-methylpiperazin-1-yl)ethoxy]phenyl]-6-(4-fluorophenyl)thieno[2,3-d]pyrimidin-4-yl]oxy-3-[2-[[2-(2-methoxyphenyl)pyrimidin-4-yl]methoxy]phenyl]propanoic acid]
- GI50 (eol1; Homo sapiens, 120 h): 1 nM
- Amax (eol1; in % (unit assumed)): −91
- GI50 (hel9217; Homo sapiens, HEL 92.1.7, 120 h): 5280 nM
- Amax (hel9217; in % (unit assumed)): −1
- GI50 (aml193; 120 h): 6 nM
- Amax (aml193; in % (unit assumed)): −87
- Amax (hl60; in % (unit assumed)): −71
- IC50 (KMS-27 [1]; KMS-27, + 5 nM Venetoclax): 20.1 nM
- IC50 (KMS-27 [1]; KMS-27, + 50 nM Venetoclax): 12 nM
- IC50 (KMS-27 [1]; KMS-27, single agent): 153 nM
- Amax (KMS-27 [1]; KMS-27, + 5 nM Venetoclax): 110.5
- Amax (KMS-27 [1]; KMS-27, + 50 nM Venetoclax): 114.7
- Amax (NCI-H929; NCI-H929, + 5 nM Venetoclax): 91.53
- Amax (NCI-H929; NCI-H929, + 50 nM Venetoclax): 103.4
- Amax (NCI-H929; NCI-H929, single agent): 90.09
- IC50 (KMS-27 [2]; 120 h): 6.98 nM
- Amax (KMS-27 [2]; in %): 88.98
